Laboratory results reported in US10238738B2, “Methods of modulating immune system responses” (priority 2014, dated 2019).

Assays:
Format in all cases: cell-based, human
NF-κB response to HBP = assay: HBP internalization assay: NF-κB luciferase in 293T cells pre-treated with inhibitors; conditions: 80 μM Dynasore or 10 μM cytochalasin D 1 hr prior to stimulation, FIG. 3b
Description: (§1) 293T were maintained in DMEM supplemented with 10% FBS, 1% glutamax, and 1% penicillin streptomycin. Jurkat 1G5 cells contain a stably-integrated LTR-luciferase reporter gene (Aguilar-Cordova et al., 1994), and were maintained in RPMI supplemented with 10% FBS and 1% glutamax. THP-1 cells were maintained in RPMI supplemented with 10% FBS and 1% glutamax and differentiated to macrophages with 50 ng/ml PMA for 48 hr, followed by a 48 hr rest period prior to stimulation. To measure LTR-driven luciferase, 1G5 cells were lysed and luminescence determined using the Luciferase Assay kit (Promega) according to manufacturer's instructions. Results are expressed as fold change compared to untreated. 293T cells were transfected in 96 well plates with 90 ng ELAM firefly luciferase reporter plasmid (Chow et al., 1999) and 10 ng pRL-TK Renilla plasmid using TransiT LTI (Mirus). 18 hours later cells were treated for 6 hours and luciferase activity determined using the Dual-Glo Luciferase Assay System (Promega). Results are expressed as fold increase relative to transfected, mock treated cells following normalization to Renilla luciferase. […]

THP-1 macrophages = assay: Infection of THP-1 macrophages with serum-opsonized E. coli, IL-6 production; conditions: 10 μg/ml cytochalasin D for 30 min; FIG. 6a
Description: Neisseria strains were grown overnight on GC agar supplemented with IsovitaleX enrichment (BD Biosciences). E. coli and S. typhimurium were grown overnight on LB agar, S. pneumoniae was grown on Columbia blood agar containing 5% sheep blood, and H. influenzae, B. multivorans, L. monocytogenes, and S. aureus were grown on brain heart infusion (BHI) agar (BD Biosciences). Where culture supernatant was desired, overnight cultures were scraped into PBS, re-suspended in RPMI 1% Isovitalex at an OD600=0.2, grown for 6 hours and the spent medium filtered through a 0.22 μm filter. For heat-killed bacteria, overnight cultures were scraped into PBS and 1 OD600 unit was re-suspended in 100 μl PBS and heated to 65° C. for 1 hr, with the exception of B. multivorans which was heated to 85° C. Cell pellets were washed, re-suspended in 100 μl PBS, and 2 μl/well used as treatment. To generate lysates, cultures were treated as above and boiled for 15 minutes. […]
Relative expression was calculated using the 2^−ΔΔCT method following normalization of target gene abundance to GAPDH. Quantitative measurements of cytokines were performed using ELISA kits form R&D Systems (KC, IL-23, IFN-β) or BD Biosciences (IL-1β, IL-8, IL-6, IL-12p70, TNF-α). Nuclear extracts were prepared from Jurkat T cells and NF-κB subunit binding was determined using the TransAM® Transcription Factor ELISA (Active Motif). […]

NF-κB = NF-κB luciferase reporter assay in 293T cells
Description: as §1, with “luciferase. Digitonin permeabilization assays were done as described previously (Girardin et al., 2003) with the following modifications: 1G5 cells were stimulated with purified HBP supernatants, or 10 μg/ml flagellin (Invivogen) for 20 minutes at 4° C. in the absence or presence of 2 μg/ml digitonin (Sigma).” for “luciferase.”
293T were maintained in DMEM supplemented with 10% FBS, 1% glutamax, and 1% penicillin streptomycin. […] To measure LTR-driven luciferase, 1G5 cells were lysed and luminescence determined using the Luciferase Assay kit (Promega) according to manufacturers instructions. Results are expressed as fold change compared to untreated. […] 18 hours later cells were treated for 6 hours and luciferase activity determined using the Dual-Glo Luciferase Assay System (Promega). Results are expressed as fold increase relative to transfected, mock treated cells following normalization to Renilla luciferase.

[1] = tested on: HIV LTR-luciferase in Jurkat 1G5 cells; assay: LTR-driven luciferase in Jurkat 1G5 cells with reversible digitonin permeabilization; conditions: FIG. 3a
Description: as §1

## O=C(N/N=C/c1ccc(O)c(O)c1)c1cc2ccccc2cc1O [Dynasore]
NF-κB response to HBP
  Effect of inhibitor on NF-κB response to HBP: attenuated the NF-κB response to HBP

## C=C1[C@@H](C)[C@H]2[C@H](Cc3ccccc3)NC(=O)[C@]23[C@H](OC(C)=O)/C=C/[C@@](C)(O)C(=O)[C@@H](C)C/C=C/[C@H]3[C@@H]1O [cytochalasin D]
NF-κB response to HBP
  Effect of inhibitor on NF-κB response to HBP: not
THP-1 macrophages
  Effect of pre-treatment on the higher IL-6 production induced by HBP-synthesizing E. coli: abrogated the effect

## C[C@H](N)C(=O)N[C@H](CCC(=O)N[C@@H](CCC[C@@H](N)C(=O)O)C(=O)O)C(=O)O [m-TriDAP, reference compound]
NF-κB
  NF-κB response of 293T cells to known Gram-negative PAMPs: unresponsive

## flagellin
[1]
  Luciferase activity after delivery into the cytosol: remained constant
